This note sets out measurements from patent US10704079B2, “Methods for the detection of beta-lactamases in a sample” (priority 2007, dated 2020).

One assay concerns ESBLs. The assay can be described thus: Beta-lactamase inhibition at certain concentrations. It is filed as biochemical.
The test system of assay [1] is original-spectrum beta-lactamases (OSBLs). Described as above. It is filed as biochemical.
Another assay has as its system class A beta-lactamases. The assay is described as above. It is filed as biochemical.
The subject of the next assay is class C beta-lactamases. The description is as above. It is filed as biochemical.
Another assay relates to E. coli (ESCCOL) strains. Put plainly: MIC assays of CTX, CCX, CAZ, CCZ, microbroth dilution (CLSI). The note with it: Escherichia coli. It is filed as cell-based. The procedure:
(§1) MIC Assays of CTX (cefotaxime), […] (cefotaxime/clavulanic acid), CAZ (ceftazidime) and CCZ (ceftazidime/clavulanic acid) were performed by microbroth dilution method according to the CLSI (Clinical and Laboratory Standards Institute) standard.
(Broth dilution looks for growth in wells or tubes with falling amounts of substance.)

The subject of assay [2] is Klebsiella pneumoniae (KLEPNEP) strains. The assay is described as above. It is filed as cell-based. The method, then: as §1
Assay [3] deals with E. coli strains. Put plainly: Lysis testing on Phoenix panel, nitrocefin hydrolysis rate. It is filed as cell-based. On the set-up: unit not given here. The note with it: without vs with lysis reagent. The method, then: (§2) Stock solutions with nitrocefin, trehalose, and/or reagents used to lyse the bacterial cells in pH6 MES buffer were prepared and dispensed into wells on the bottom part of Phoenix™ panel (BD, USA), with one stock solution in one well. Panels were then dried in an oven for approximately 30 min at approximately 70° C. The top part of Phoenix panel was then attached to the bottom part forming a panel system ready for inoculation. The concentrations of reagents after rehydration following Phoenix panel inoculation were 3 mg/ml lysozyme, 1 mM EDTA, and 1% trehalose in 0.1M pH6 MES buffer.
(§3) Representative strains of bacteria, such as E. coli and Klebsiella pneumoniae, were each streaked on a Trypticase™ Soy Agar with 5% Sheep Blood agar plate (BD, USA) and the plates were incubated at 35° C. for 18 hours. Afterwards, colonies from pure culture on each plate were inoculated into BD Phoenix ID broth (BD, USA) and adjusted to a desired turbidity of approximately 0.5 MacFarland. The bacterial cell suspension was then poured into the ID side of the Phoenix panels that were specifically made for cell lysis testing. Once inoculated, the panel was loaded into Phoenix instrument, where nitrocefin hydrolysis rate was monitored by colorimetric signals changes every 20 minutes for 16 hours.

Assay [4] relates to Klebsiella pneumoniae strains. The assay is described as above. The note with it: without vs with lysis reagent. It is filed as cell-based. On the set-up: unit not given here. The method, then:
as §2, §3

The test system of assay [5] is E. coli strains. The assay can be described thus: Cefoxitin MIC assay, microbroth dilution (CLSI). It is filed as cell-based. The method, then:
Cefoxitin MIC Assay were performed by microbroth dilution method according to the CLSI (Clinical and Laboratory Standards Institute) standard.

Where [6] appears, read: ESCCOL strain 2 of Table 20 (ESBL), read-out: MIC.
Setting [7] is: ESCCOL strain 3 of Table 20 (OSBL), read-out: MIC.
[8] abbreviates: ESCCOL strain 4 of Table 20 (OSBL), read-out: MIC.
[9] abbreviates: ESCCOL strain 5 of Table 20 (WT), read-out: MIC.
The mark [10] stands for this setting: KLEPNEP strain 7 of Table 20 (ESBL), read-out: MIC.
[11] abbreviates: KLEPNEP strain 8 of Table 20 (OSBL), read-out: MIC.
[12] abbreviates: KLEPNEP strain 9 of Table 20 (OSBL), read-out: MIC.
[13] abbreviates: KLEPNEP strain 10 of Table 20 (WT), read-out: MIC.

Values after ≈ are worked out from the molar mass of the structure shown. Like-named read-outs stand apart in the source and are kept apart here.

As to `O=C(O)[C@H]1/C(=C/CO)O[C@@H]2CC(=O)N21` [clavulanic acid], in the assay on ESBLs, the “inhibition of ESBLs” value is “inhibits”. The “inhibition of OSBLs” value in assay [1] is reported as “inhibits”.
With `Cc1onc(-c2ccccc2Cl)c1C(=O)N[C@@H]1C(=O)N2[C@@H]1SC(C)(C)[C@@H]2C(=O)O` [cloxacillin], the “inhibition of class A beta-lactamases” value in the assay with class A beta-lactamases is “inhibits”. Also, in the assay with class C beta-lactamases, the “inhibition of class C beta-lactamases” value is given as “inhibits”.
On to `CO/N=C(\C(=O)N[C@@H]1C(=O)N2C(C(=O)O)=C(COC(C)=O)CS[C@H]12)c1csc(N)n1` [CTX, cefotaxime], for which the MIC (usually the least concentration at which growth counts as inhibited) is 32 µg/mL (≈ 70.3 µM) with E. coli (ESCCOL) strains (ESCCOL strain 1 of Table 20 (ESBL), read-out: MIC); above 64 µg/mL in the assay on E. coli (ESCCOL) strains (setting [6]); at most 0.25 µg/mL in the assay with E. coli (ESCCOL) strains (setting [7]); at most 0.25 µg/mL in the assay with E. coli (ESCCOL) strains (setting [8]); at most 0.25 µg/mL in the assay on E. coli (ESCCOL) strains (setting [9]); above 64 µg/mL in [2] (KLEPNEP strain 6 of Table 20 (ESBL), read-out: MIC). Moreover, the MIC in assay [2] (setting [10]) is above 64 µg/mL; in assay [2] (setting [11]) it was at most 0.25 µg/mL; in [2] (setting [12]) it was at most 0.25 µg/mL; in assay [2] (setting [13]), 0.5 µg/mL (≈ 1.1 µM).
For `O=C(Cc1cccs1)N[C@@H]1C(=O)N2C(C(=O)O)=C(/C=C/c3ccc([N+](=O)[O-])cc3[N+](=O)[O-])CS[C@H]12` [NCF, 3-[2,4-dinitrostyryl]-7-(2-thienylacetamido]3-cephem-4-carobxylic acid], the “NCF activity (maximum nitrocefin hydrolysis rate within 10 hrs)” value (“NCF activity” below) in the assay with E. coli strains [3] (E. coli sample 1, intracellular beta-lactamase +) is listed as 1.9; with E. coli strains [3] (E. coli sample 2, intracellular beta-lactamase +), 2.1; in the assay with E. coli strains [3] (E. coli sample 3, intracellular beta-lactamase +), 2.3; in the assay with E. coli strains [3] (E. coli sample 4, intracellular beta-lactamase +), 1.9; in the assay with E. coli strains [3] (E. coli sample 5, intracellular beta-lactamase +), 8.2; in the assay with E. coli strains [3] (E. coli sample 6, intracellular beta-lactamase +), 7.2. Moreover, the “NCF activity” value is recorded as 6.8 with E. coli strains [3] (E. coli sample 7, intracellular beta-lactamase +); 1.7 with E. coli strains [3] (E. coli sample 8, intracellular beta-lactamase −); 1.3 in [4] (Klebsiella pneumoniae sample 9, intracellular beta-lactamase +); 3.3 in [4] (Klebsiella pneumoniae sample 10, intracellular beta-lactamase +); 3.9 in assay [4] (Klebsiella pneumoniae sample 11, intracellular beta-lactamase +); 2.6 in assay [4] (Klebsiella pneumoniae sample 12, intracellular beta-lactamase +). Besides, the “NCF activity” value in assay [4] (Klebsiella pneumoniae sample 13, intracellular beta-lactamase +) stood at 6.7; in assay [4] (Klebsiella pneumoniae sample 14, intracellular beta-lactamase +) it was 7.5; in assay [4] (Klebsiella pneumoniae sample 15, intracellular beta-lactamase +) it was 9.1; in assay [4] (Klebsiella pneumoniae sample 16, intracellular beta-lactamase −) it was 1.2.
On to `CC(C)(O/N=C(\C(=O)N[C@@H]1C(=O)N2C(C(=O)[O-])=C(C[n+]3ccccc3)CS[C@H]12)c1csc(N)n1)C(=O)O` [CAZ, ceftazidime], for which the MIC against E. coli (ESCCOL) strains is above 128 µg/mL; with E. coli (ESCCOL) strains (setting [6]) it was 16 µg/mL (≈ 29.3 µM); with E. coli (ESCCOL) strains (setting [7]) it was at most 0.25 µg/mL; in the assay on E. coli (ESCCOL) strains (setting [8]), at most 0.25 µg/mL; in the assay on E. coli (ESCCOL) strains (setting [9]), at most 0.25 µg/mL; in assay [2] it was above 128 µg/mL. In addition, the MIC in assay [2] (setting [10]) was 8 µg/mL (≈ 14.6 µM); in assay [2] (setting [11]), at most 0.25 µg/mL; in assay [2] (setting [12]), at most 0.25 µg/mL; in [2] (setting [13]), at most 0.25 µg/mL.
As to `CO[C@@]1(NC(=O)Cc2cccs2)C(=O)N2C(C(=O)O)=C(COC(N)=O)CS[C@@H]21` [Cefoxitin], the Cefoxitin MIC with E. coli strains [5] (E. coli strain 1 of Table 18 (WT)) was at most 4 µg/mL; in the assay with E. coli strains [5] (E. coli strain 2 of Table 18 (OSBL, C-plasmid)), above 32 µg/mL; in the assay on E. coli strains [5] (E. coli strain 3 of Table 18 (OSBL, C-chromo)), above 32 µg/mL; in the assay on E. coli strains [5] (E. coli strain 4 of Table 18 (OSBL)) it was 32 µg/mL; in the assay with E. coli strains [5] (E. coli strain 5 of Table 18 (ESBL, C-plasmid)), above 32 µg/mL; with E. coli strains [5] (E. coli strain 6 of Table 18 (ESBL, C-chromo)), “=32”. In addition, the “Cefoxitin MIC” value in the assay with E. coli strains [5] (E. coli strain 7 of Table 18 (ESBL)) was “=8”; with E. coli strains [5] (E. coli strain 8 of Table 18 (C-chromo)) it was above 32 µg/mL; with E. coli strains [5] (E. coli strain 9 of Table 18 (Carbapenemase)), above 32 µg/mL; with E. coli strains [5] (E. coli strain 10 of Table 18 (C-plasmid)), above 32 µg/mL; in the assay on E. coli strains [5] (E. coli strain 11 of Table 18 (OSBL, C-plasmid)), above 32 µg/mL.
